Laboratory results from patent US12281098B2, “Five-membered-fused six-membered compound, preparation method, pharmaceutical composition and use” (HANGZHOU POLYMED BIOPHARMACEUTICALS, INC., priority 2021, dated 2025).

Target: T1, IRAK4 kinase (Homo sapiens, UniProt Q9NWZ3)
T1 construct: purchased Carna 09-145
T1 sequence (Q9NWZ3 1-460): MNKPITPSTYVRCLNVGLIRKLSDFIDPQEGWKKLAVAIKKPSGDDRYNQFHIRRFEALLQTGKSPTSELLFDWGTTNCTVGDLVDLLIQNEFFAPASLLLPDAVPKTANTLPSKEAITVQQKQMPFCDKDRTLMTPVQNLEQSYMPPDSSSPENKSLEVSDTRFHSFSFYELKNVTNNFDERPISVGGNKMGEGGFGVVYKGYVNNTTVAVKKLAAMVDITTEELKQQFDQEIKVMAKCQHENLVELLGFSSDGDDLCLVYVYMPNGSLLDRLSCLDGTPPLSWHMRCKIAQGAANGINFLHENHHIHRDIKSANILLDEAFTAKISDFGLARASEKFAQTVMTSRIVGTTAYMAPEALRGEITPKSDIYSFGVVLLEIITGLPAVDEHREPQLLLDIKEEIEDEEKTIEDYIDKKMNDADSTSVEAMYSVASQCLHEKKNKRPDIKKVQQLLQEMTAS
Test: Compound inhibition of IRAK4 kinase activity (fluorescence microfluidic mobility shift assay)
Type: biochemical
Settings: Table 1; 10 μM ATP, 6 nM IRAK4 kinase
Experimental: Based on the experimental method of fluorescence microfluidic mobility shift assay, the IC50 value of the compound for competitive binding of ATP to IRAK4 kinase was determined. The initial detection concentration of the compound was 10 μM, which was 4-fold serially diluted to 0.38 nM and assayed in duplicate. In this case, commercially available staurosporine was the standard control for the assay.
1) IRAK4 kinase was dissolved in kinase buffer (50 mM HEPES pH 7.5, 10 mM MgCl2, 2 mM DDT, and 0.01% Brij-35) at a final concentration of 6 nM.
2) The substrate peptide FAM-P8 and ATP were dissolved in the above kinase buffer, and the final concentrations of the substrate peptide FAM-P8 and ATP for IRAK4 were 3 μM and 10 μM, respectively.
3) Compound dilution: The compound was first diluted to 50 μM, and then 4-fold serially diluted with DMSO. In this case, the solution without compound and kinase served as the blank control, corresponding to the “minimum value” shown below; the solution without compound but containing kinase, adenosine 5′-triphosphate disodium salt hydrate, DMSO, and the buffer served as the positive control, corresponding to the “maximum value” shown below.
4) Kinase reaction and termination: 10 μL of the kinase buffer was added to a 384-well plate containing 5 μL of the compound to be tested, and the mixture was incubated at room temperature for 10 minutes; another 10 μL of buffer containing the substrate peptide and adenosine 5′-triphosphate disodium salt hydrate was added to the 384-well plate, and after incubation at 28° C. for 1 hour, 25 μL of termination solution (100 mM HEPES pH 7.5, 50 mM EDTA, 0.2% Coating Reagent #3, and 0.015% Brij-35) was added to each well to terminate the reaction.
5) Data reading: CaliperEZ Reader II instrument was used to read the conversion rate data. Setting conditions: downstream voltage as −500 V, upstream voltage as −2250 V, base pressure as −0.5 PSI, and screening pressure as −1.2 PSI.
6) Data calculation: the conversion rate data was copied from CaliperEZ Reader II, and the conversion rate was converted into inhibition rate data. The calculation formula is as follows: Inhibition percentage (%)=(maximum value−conversion rate)/(maximum value−minimum value)*100%
IC50 values were fitted with XLFit excel add-in version 5.4.0.8.

IC50 [nM]	Structure (SMILES)
1000 to 10000	O=C1CCC(N2C(=O)c3cccc(NCCOCCOCCOCCN4Cc5cc(NC(=O)c6cccc(C(F)(F)F)n6)c(Br)cc5C4=O)c3C2=O)C(=O)N1 (stereo not drawn) [III-4]
100 to 1000	Cc1ncsc1-c1ccc([C@H](C)NC(=O)C2C[C@@H](O)CN2C(=O)[C@@H](NC(=O)COCCNC(=O)CN2CCN(CCn3cc4cc(NC(=O)c5cccc(C(F)(F)F)n5)c(C(C)(C)O)cc4n3)C2=O)C(C)(C)C)cc1 (stereo partly drawn) [III-15]
100 to 1000	CC(C)(O)c1cc2nn(CCN3CCN(CC(=O)N4CCN(c5cccc6c5C(=O)N(C5CCC(=O)NC5=O)C6=O)CC4)C3=O)cc2cc1NC(=O)c1cccc(C(F)(F)F)n1 (stereo not drawn) [III-14]
100 to 1000	CC(C)(O)c1cc2nn(CCN3CCN(CC(=O)N4CC5(CCN(c6cccc7c6C(=O)N(C6CCC(=O)NC6=O)C7=O)CC5)C4)C3=O)cc2cc1NC(=O)c1cccc(C(F)(F)F)n1 (stereo not drawn) [III-12]
100 to 1000	CC(C)(O)c1cc2nn(CCN3CCN(CC(=O)NC4CCN(c5cccc6c5C(=O)N(C5CCC(=O)NC5=O)C6=O)CC4)C3=O)cc2cc1NC(=O)c1cccc(C(F)(F)F)n1 (stereo not drawn) [III-13]
≥ 10000	O=C(CCCN1Cc2cc(NC(=O)c3cccc(C(F)(F)F)n3)c(Br)cc2C1=O)NCCOCCOCCNc1cccc2c1C(=O)N(C1CCC(=O)NC1=O)C2=O (stereo not drawn) [III-1]

Same assay, conditions: Table 2; 10 μM ATP, 6 nM IRAK4 kinase

Structure (SMILES)	IC50 [nM]
COc1cc2nn(CCC3CCN(CC(=O)N4CC5(CC(CC(=O)N[C@H](C(=O)N6C[C@H](O)C[C@H]6C(=O)N[C@@H](C)c6ccc(-c7scnc7C)cc6)C(C)(C)C)C5)C4)CC3)cc2cc1NC(=O)c1cccc(C(F)(F)F)n1 [III-70]	< 100
O=C1CCC(N2C(=O)c3cccc(NCCOCCOCCOCCN4Cc5cc(NC(=O)c6cccc(C(F)(F)F)n6)c(Br)cc5C4=O)c3C2=O)C(=O)N1 (stereo not drawn) [III-4]	1000 to 10000
Cc1ncsc1-c1ccc([C@H](C)NC(=O)C2C[C@@H](O)CN2C(=O)[C@@H](NC(=O)COCCNC(=O)CN2CCN(CCn3cc4cc(NC(=O)c5cccc(C(F)(F)F)n5)c(C(C)(C)O)cc4n3)C2=O)C(C)(C)C)cc1 (stereo partly drawn) [III-15]	100 to 1000
COc1cc2c(cc1NC(=O)c1cccc(C(F)(F)F)n1)CN(CCC(C)(C)C(=O)N1CCC3(CC1)CN(c1cccc4c1C(=O)N(C1CCC(=O)NC1=O)C4=O)C3)C2=O (stereo not drawn) [III-59]	100 to 1000
CC(C)(O)c1cc2nn(CCN3CCN(CC(=O)N4CCN(c5cccc6c5C(=O)N(C5CCC(=O)NC5=O)C6=O)CC4)C3=O)cc2cc1NC(=O)c1cccc(C(F)(F)F)n1 (stereo not drawn) [III-14]	100 to 1000
COc1cc2c(cc1NC(=O)c1cccc(C(F)(F)F)n1)CN(CCC(C)(C)C(=O)N1CC3(C1)CN(c1cccc4c1C(=O)N(C1CCC(=O)NC1=O)C4=O)C3)C2=O (stereo not drawn) [III-64]	100 to 1000
COc1cc2nn(CCN3CCN(CC(=O)N4CCC5(CCC(C(=O)N[C@H](C(=O)N6C[C@H](O)C[C@H]6C(=O)N[C@@H](C)c6ccc(-c7scnc7C)cc6)C(C)(C)C)CC5)CC4)[C@H](C)C3)cc2cc1NC(=O)c1cccc(C(F)(F)F)n1 [III-48]	< 100
CC(C)(O)c1cc2nn(CCN3CCN(CC(=O)NC4CCN(c5cccc6c5C(=O)N(C5CCC(=O)NC5=O)C6=O)CC4)C3=O)cc2cc1NC(=O)c1cccc(C(F)(F)F)n1 (stereo not drawn) [III-13]	100 to 1000
COc1cc2c(cc1NC(=O)c1cccc(C(F)(F)F)n1)CN(CCC(C)(C)C(=O)N1CCC3(CC1)CCN(c1ncc(Nc4cccc5c4C(=O)N(C4CCC(=O)NC4=O)C5=O)cn1)CC3)C2=O (stereo not drawn) [III-33]	100 to 1000
COc1cc2nn(CCC3CCN(CC(=O)N4CCC5(CCC(C(=O)N[C@H](C(=O)N6C[C@H](O)C[C@H]6C(=O)N[C@@H](C)c6ccc(-c7scnc7C)cc6)C(C)(C)C)CC5)CC4)CC3)cc2cc1NC(=O)c1cccc(C(F)(F)F)n1 [III-68]	< 100
COc1cc2c(cc1NC(=O)c1cccc(C(F)(F)F)n1)CN(CCC(C)(C)C(=O)N1CCC3(CC1)CCN(c1ncc(C(=O)N[C@H](C(=O)N4C[C@H](O)C[C@H]4C(=O)N[C@@H](C)c4ccc(-c5scnc5C)cc4)C(C)(C)C)cn1)CC3)C2=O [III-32]	100 to 1000
O=C(CCCN1Cc2cc(NC(=O)c3cccc(C(F)(F)F)n3)c(Br)cc2C1=O)NCCOCCOCCNc1cccc2c1C(=O)N(C1CCC(=O)NC1=O)C2=O (stereo not drawn) [III-1]	≥ 10000
COc1cc2c(cc1NC(=O)c1cccc(C(F)(F)F)n1)CN(CCN1CCN(CC(=O)N3CCC4(CCC(NC(C(=O)N5CC(O)CC5C(=O)NC(C)c5ccc(-c6scnc6C)cc5)C(C)(C)C)CC4)CC3)CC1)C2=O (stereo not drawn) [III-44]	100 to 1000
Cc1ncsc1-c1ccc([C@H](C)NC(=O)[C@@H]2C[C@@H](O)CN2C(=O)[C@@H](NC(=O)C2CCC3(CC2)CCN(C(=O)CN2CCN(CCn4cc5cc(NC(=O)c6cccc(C(F)(F)F)n6)c(OC(C)C)cc5n4)CC2)CC3)C(C)(C)C)cc1 [III-57]	< 100
COc1cc2c(cc1NC(=O)c1cccc(C(F)(F)F)n1)CN(CCN1CCN(CC(=O)N3CCC4(CCC(C(=O)NC(C(=O)N5CC(O)CC5C(=O)NC(C)c5ccc(-c6scnc6C)cc5)C(C)(C)C)CC4)CC3)CC1)C2=O (stereo not drawn) [III-43]	100 to 1000

Second part, the molecule after the results:

IC50 [nM]	Structure (SMILES)
< 100	COc1cc2nn(CCN3CCN(CC(=O)N4CCC5(CC4)CCN(c4cccc6c4C(=O)N(C4CCC(=O)NC4=O)C6=O)CC5)CC3)cc2cc1NC(=O)c1cccc(C(F)(F)F)n1 (stereo not drawn) [III-38]
100 to 1000	CC(C)(O)c1cc2nn(CCN3CCN(CC(=O)N4CC5(CCN(c6cccc7c6C(=O)N(C6CCC(=O)NC6=O)C7=O)CC5)C4)C3=O)cc2cc1NC(=O)c1cccc(C(F)(F)F)n1 (stereo not drawn) [III-12]
< 100	COc1cc2nn(CCN3C4CCC3CN(CC(=O)N3CCC5(CC3)CCN(c3cccc6c3C(=O)N(C3CCC(=O)NC3=O)C6=O)CC5)C4)cc2cc1NC(=O)c1cccc(C(F)(F)F)n1 (stereo not drawn) [III-53]
< 100	COc1cc2nn(CCN3CCC(CC(=O)N4CC5(C4)CN(c4cccc6c4C(=O)N(C4CCC(=O)NC4=O)C6=O)C5)CC3)cc2cc1NC(=O)c1cccc(C(F)(F)F)n1 (stereo not drawn) [III-72]
< 100	COc1cc2nn(CCC3CCN(CC(=O)N4CCC5(CC4)CCN(c4cccc6c4C(=O)N(C4CCC(=O)NC4=O)C6=O)CC5)CC3)cc2cc1NC(=O)c1cccc(C(F)(F)F)n1 (stereo not drawn) [III-66]
< 100	COc1cc2nn(CCN3CCN(CC(=O)N4CC5(C4)CN(c4cccc6c4C(=O)N(C4CCC(=O)NC4=O)C6=O)C5)CC3)cc2cc1NC(=O)c1cccc(C(F)(F)F)n1 (stereo not drawn) [III-61]
< 100	COc1cc2nn(CCN3CCN(CC(=O)N4CCC5(CC4)CCN(c4cccc6c4C(=O)N(C4CCC(=O)NC4=O)C6=O)CC5)[C@H](C)C3)cc2cc1NC(=O)c1cccc(C(F)(F)F)n1 (stereo partly drawn) [III-45]
< 100	COc1cc2nn(CCN3CCN(CC(=O)N4CCC5(CC4)CCN(c4cccc6c4C(=O)N(C4CCC(=O)NC4=O)C6=O)CC5)[C@@H](C)C3)cc2cc1NC(=O)c1cccc(C(F)(F)F)n1 (stereo partly drawn) [III-46]
< 100	CC(C)(O)c1cc2nn(CCN3CCN(CC(=O)N4CCC5(CC4)CCN(c4cccc6c4C(=O)N(C4CCC(=O)NC4=O)C6=O)CC5)CC3)cc2cc1NC(=O)c1cccc(C(F)(F)F)n1 (stereo not drawn) [III-50]
< 100	COc1cc2nn(CCN3CCC(CC(=O)N4CCC5(CC4)CCN(c4cccc6c4C(=O)N(C4CCC(=O)NC4=O)C6=O)CC5)CC3)cc2cc1NC(=O)c1cccc(C(F)(F)F)n1 (stereo not drawn) [III-71]
< 100	COc1cc2nn(CCN3CCN(CC(=O)N4CCC5(CC4)CCN(c4cc6c(cc4F)C(=O)N(C4CCC(=O)NC4=O)C6=O)CC5)CC3)cc2cc1NC(=O)c1cccc(C(F)(F)F)n1 (stereo not drawn) [III-55]
100 to 1000	O=C1CCC(N2C(=O)c3cccc(N4CCC5(CCN(C(=O)CN6CCN(CCn7cc8cc(NC(=O)c9cccc(C(F)(F)F)n9)c(OC(F)(F)F)cc8n7)CC6)CC5)CC4)c3C2=O)C(=O)N1 (stereo not drawn) [III-73]
< 100	COc1cc2nn(CCN3CCN(C4CCC5(CC4)CCN(c4cccc6c4C(=O)N(C4CCC(=O)NC4=O)C6=O)CC5)CC3)cc2cc1NC(=O)c1cccc(C(F)(F)F)n1 (stereo not drawn) [III-40]
< 100	COc1cc2nn(CCN3CCN(CC(=O)N4CCC5(CC4)CN(c4cccc6c4C(=O)N(C4CCC(=O)NC4=O)C6=O)C5)CC3)cc2cc1NC(=O)c1cccc(C(F)(F)F)n1 (stereo not drawn) [III-62]
100 to 1000	COc1cc2c(cc1NC(=O)c1cccc(C(F)(F)F)n1)CN(CCN1CCN(CC(=O)N3CCC4(CC3)CCN(c3cccc5c3C(=O)N(C3CCC(=O)NC3=O)C5=O)CC4)CC1)C2=O (stereo not drawn) [III-58]
< 100	CC(C)Oc1cc2nn(CCN3CCN(CC(=O)N4CC5(C4)CN(c4cccc6c4C(=O)N(C4CCC(=O)NC4=O)C6=O)C5)CC3)cc2cc1NC(=O)c1cccc(C(F)(F)F)n1 (stereo not drawn) [III-60]
< 100	COc1cc2nn(CC#CC3CCN(CC(=O)N4CCC5(CC4)CCN(c4cccc6c4C(=O)N(C4CCC(=O)NC4=O)C6=O)CC5)CC3)cc2cc1NC(=O)c1cccc(C(F)(F)F)n1 (stereo not drawn) [III-67]
< 100	CC(C)Oc1cc2nn(CCN3CCN(CC(=O)N4CCC5(CC4)CCN(c4cccc6c4C(=O)N(C4CCC(=O)NC4=O)C6=O)CC5)CC3)cc2cc1NC(=O)c1cccc(C(F)(F)F)n1 (stereo not drawn) [III-51]
